The values below come from EP0436902B1, “5-Fluorouracil derivatives” (OTSUKA PHARMACEUTICAL CO., LTD., priority 1984, dated 1986).

The assay relates to Sarcoma-180. The experiment in a line: Pharmacological Test I: antitumor effect on subcutaneously transplanted Sarcoma-180 solid tumor in mice. The format is in vivo. To be noted: Mus musculus, 240 h; ICR mice, Sarcoma-180 2 X 10⁷ cells subcutaneously; oral, once a day for 7 consecutive days, suspended in 5 % gum arabic; tumor weight on the 10th day; from dose-response curve; read-out: ED₅₀ (50 % tumor inhibition dose in which T/C is 0.5). On the procedure:
Isophthaloyl chloride (1.50 g) and 6.0 ml of triethylamine were added to a solution of 1.00 g of 5-fluoro-1-(2-tetrahydrofuranyl)uracil in 50 ml of dioxane. The mixture was refluxed for 1.5 hours. The resulting precipitate was removed by filtration and the filtrate was concentrated. To the concentrate was added 50 ml of methylene chloride and thereto added was 10 ml of a solution of 1.50 g of 2,6-bis(trimethylsilyloxy)pyridine in methylene chloride. The mixture was left to stand at room temperature for 3 hours. The solvent was distilled off and the residue was subjected to silica gel column chromatography using as an eluent 2 % methanol-chloroform, giving 0.30 g of the title compound in a yield of 14 %. ¹H-NMR(CDCl₃)δ: 8.66-8.19 (3H, m, [drawing 76] 7.83-7.62 (2H, m, [drawing 77] and C₄-H of the pyridine ring) 7.52 (1H, d, J = 6Hz, C₆-H) 6.77 and 6.68 (each 1H, d, J = 8Hz, C₃·₅-H of the pyridine ring) 5.99-5.92 (1H, m, C1'-H) 4.30-3.88 (2H, m, C4'-H) 2.44-1.89 (4H, m, C2'·3'-H) Pharmacological Test I • (a) Sarcoma-180 subcultured in an ascites of ICR mice was diluted with a physiological saline solution and subcutaneously transplanted into the backs of ICR mice in an amount of 2 X 10⁷ cells each. Twenty-four hours after the transplantation, a test compound suspended in a 5 % solution of gum arabic was orally administered to each of mice once a day for 7 consecutive days.
The solid tumor was extirpated from under the dorsal skin of mice on the 10th day after the transplantation to measure the weight of the tumor. There was determined the ratio (T/C) of the weight or tumor (T) cut out from the group of mice treated with the test compound to the weight of tumor (C) from the group of mice not treated therewith. The 50 % tumor inhibition dose (ED₅₀ value) in which T/C is 0.5 was determined from the dose-response curve of dosage and the ratio (T/C).
Table 1 below lists the results together with the value obtained by using as a control an anti-cancer preparation containing 5-fluoro-1-(2-tetrahydrofuranyl)uracil and uracil in a ratio by weight of 1 to 4.
With `O=C(Oc1cc(OC(=O)c2ccccc2)c(Cl)cn1)c1cccc(C(=O)n2c(=O)c(F)cn(C3CCCO3)c2=O)c1` (centres unmarked) [Example 4, 3-[3-(4-benzoyloxy-5-chloro-2-pyridyloxycarbonyl)benzoyl]-5-fluoro-1-(2-tetrahydrofuranyl)uracil], the ED50 was determined as 18 mg/kg.
The figure for `O=C(Oc1cc(=O)n(C2CCCO2)cc1Cl)c1cccc(C(=O)n2c(=O)c(F)cn(C3CCCO3)c2=O)c1` (centres unmarked) [Example 10, 3-[3-[5-chloro-1,2-dihydro-2-oxo-1-(2-tetrahydrofuranyl)-4-pyridyloxycarbonyl]benzoyl]-5-fluoro-1-(2-tetrahydrofuranyl)uracil] is 28 mg/kg.
The figure for `N#Cc1ccc(OC(=O)c2ccco2)nc1OC(=O)c1cccc(C(=O)n2c(=O)c(F)cn(C3CCCO3)c2=O)c1` (centres unmarked) [Example 15, 3-[3-[3-cyano-6-(2-furoyloxy)-2-pyridyloxycarbonyl]benzoyl]-5-fluoro-1-(2-tetrahydrofuranyl)uracil] is 18 mg/kg.
The figure for `O=C(Oc1cc[nH]c(=O)c1)c1cccc(C(=O)n2c(=O)c(F)cn(C3CCCO3)c2=O)c1` (centres unmarked) [Example 1, 3-[3-(1,2-dihydro-2-oxo-4-pyridyloxycarbonyl)benzoyl]-5-fluoro-1-(2-tetrahydrofuranyl)uracil] is 10 mg/kg; for `O=C(Oc1cc(OC(=O)c2cccc(C(=O)n3c(=O)c(F)cn(C4CCCO4)c3=O)c2)c(Cl)cn1)c1ccccc1` (centres unmarked) [Example 3, 3-[3-(2-benzoyloxy-5-chloro-4-pyridyloxycarbonyl)benzoyl]-5-fluoro-1-(2-tetrahydrofuranyl)uracil] it is 25 mg/kg.
